# Results taken from patent publication US20240299452A1, “Rapamycin and Cell Therapy” (Innovative Cellular Therapeutics Holdings, Ltd., priority 2023, published 2024).
# Columns and labels:
# [1] = system: CD19 CAR T cells stimulated with nalm6 cells; assay: CAR T cell proliferation after 96 hours with rapamycin; assay type: cell-based; settings: nalm6 stimulation, CD4+ and CD8+ subsets
# Protocol: The following study investigated the effects of rapamycin on CAR T cells and tumor cell lines. In the first part of the experiment, cytokine release assays were performed. […] In the same experiments, T cell proliferation was assessed to determine whether rapamycin affects the expansion of CAR T cells. […] In the last part of the study, rapamycin was directly applied to two types of tumor cell lines, PC3 and LNCAP, to assess its impact on tumor cell proliferation. […] It can decrease the proliferation of tumor cells, aligning with clinical observations.
# The bar graphs depict the proliferation rates of CAR T cells, specifically CD4+ and CD8+ subsets, after 96 hours of stimulation with CD19 antigen and varying concentrations of rapamycin. […] CD8: The right graph indicates the percentage of proliferating CD8+ CAR T cells under the same treatment conditions as CD4+.
# [2] = taken orally at a dose of 2 mg/day; read-out: maximum blood concentration (Cmax); cited from earlier work
compound,measurement,setting,value
"CO[C@H]1C[C@@H]2CC[C@@H](C)[C@@](O)(O2)C(=O)C(=O)N2CCCC[C@H]2C(=O)O[C@H]([C@H](C)C[C@@H]2CC[C@@H](O)[C@H](OC)C2)CC(=O)[C@H](C)/C=C(\C)[C@@H](O)[C@@H](OC)C(=O)[C@H](C)C[C@H](C)/C=C/C=C/C=C/1C [rapamycin, Rapamycin]",CAR T cell proliferation,[1],not inhibited
same,Cmax,[2],16 nM
